{
  "source": "paper PMC2844711",
  "about": "(The Journal of neuroscience : the official journal of the …, 2010)",
  "biological_target": "GluA4 (Rattus norvegicus, UniProt P19493, L505Y/L672V)",
  "sequence (P19493 21-902 L505Y/L672V)": "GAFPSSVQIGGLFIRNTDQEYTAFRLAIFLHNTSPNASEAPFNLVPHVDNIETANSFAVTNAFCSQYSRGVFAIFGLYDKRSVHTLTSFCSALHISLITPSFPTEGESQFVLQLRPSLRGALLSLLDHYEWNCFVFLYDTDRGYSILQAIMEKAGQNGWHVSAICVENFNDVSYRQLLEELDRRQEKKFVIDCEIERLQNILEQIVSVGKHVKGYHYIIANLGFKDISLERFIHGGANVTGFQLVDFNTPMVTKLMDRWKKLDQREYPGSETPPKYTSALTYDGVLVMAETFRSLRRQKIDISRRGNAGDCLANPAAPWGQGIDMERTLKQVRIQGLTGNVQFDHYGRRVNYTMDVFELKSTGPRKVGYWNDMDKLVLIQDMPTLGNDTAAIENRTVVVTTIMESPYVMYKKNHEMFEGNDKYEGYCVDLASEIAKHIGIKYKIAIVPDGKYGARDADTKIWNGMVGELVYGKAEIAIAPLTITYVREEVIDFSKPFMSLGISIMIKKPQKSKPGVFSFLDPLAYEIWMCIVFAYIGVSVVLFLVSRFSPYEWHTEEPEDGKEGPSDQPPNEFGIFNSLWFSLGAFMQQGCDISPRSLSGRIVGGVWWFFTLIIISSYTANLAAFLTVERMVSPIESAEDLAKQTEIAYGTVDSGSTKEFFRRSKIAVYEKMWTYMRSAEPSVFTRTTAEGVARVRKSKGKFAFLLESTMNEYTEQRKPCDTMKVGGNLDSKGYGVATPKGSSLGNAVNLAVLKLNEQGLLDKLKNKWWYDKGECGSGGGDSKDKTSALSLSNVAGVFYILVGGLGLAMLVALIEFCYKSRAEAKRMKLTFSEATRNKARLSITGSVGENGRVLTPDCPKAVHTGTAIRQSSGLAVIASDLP",
  "test": "whole-cell patch clamp in tsA201 cells, agonist dose-response",
  "type": "cell-based",
  "data": [
    {"smiles": "C=C(C)[C@H]1CN[C@H](C(=O)O)[C@H]1CC(=O)O", "note": "[KA, kainate]", "values": [
      {"measurement": "EC50", "result": "324 ± 35", "unit": "µM"}
    ]}
  ]
}
